According to the NIST ThermoML archive (doi:10.1021/je700261b):

Experiment: xn = mol fraction of the nth substance listed
Details: Liquid

CCCCO [butan-1-ol] + O=C=O
Details	mass density [kg/m3]
313.16 K, 11059 kPa, x2 = 0.5965	838.66
313.16 K, 11082 kPa, x2 = 0.8663	813.86
313.16 K, 12061 kPa, x2 = 0.8663	821.6
313.16 K, 12075 kPa, x2 = 0.5965	840.6
313.16 K, 13043 kPa, x2 = 0.8663	828.71
313.16 K, 13069 kPa, x2 = 0.5965	842.49
313.16 K, 14076 kPa, x2 = 0.8663	835.52
313.16 K, 14098 kPa, x2 = 0.5965	844.39
313.16 K, 15059 kPa, x2 = 0.5965	846.11
313.16 K, 15061 kPa, x2 = 0.8663	841.57
313.16 K, 16037 kPa, x2 = 0.5965	847.81
313.16 K, 16043 kPa, x2 = 0.8663	847.15
313.16 K, 17032 kPa, x2 = 0.5965	849.52
313.16 K, 17052 kPa, x2 = 0.8663	852.59
313.16 K, 18048 kPa, x2 = 0.5965	851.21
313.16 K, 18056 kPa, x2 = 0.8663	857.69
313.16 K, 19039 kPa, x2 = 0.8663	862.42
313.16 K, 19055 kPa, x2 = 0.5965	852.88
313.16 K, 20027 kPa, x2 = 0.8663	866.99
313.16 K, 20044 kPa, x2 = 0.5965	854.46
313.16 K, 21042 kPa, x2 = 0.5965	856.04
313.16 K, 21068 kPa, x2 = 0.8663	871.52
313.16 K, 22034 kPa, x2 = 0.8663	875.6
313.16 K, 22053 kPa, x2 = 0.5965	857.62
313.16 K, 23031 kPa, x2 = 0.5965	859.12
313.16 K, 23061 kPa, x2 = 0.8663	879.74
313.16 K, 24038 kPa, x2 = 0.5965	860.62
313.16 K, 24054 kPa, x2 = 0.8663	883.63
313.16 K, 25015 kPa, x2 = 0.8663	887.21
313.16 K, 25036 kPa, x2 = 0.5965	862.12
323.05 K, 1017 kPa, x2 = 0.0251	789.88
323.05 K, 2015 kPa, x2 = 0.0251	790.73
323.05 K, 3003 kPa, x2 = 0.0251	791.59
323.05 K, 4007 kPa, x2 = 0.0251	792.48
323.05 K, 5026 kPa, x2 = 0.0251	793.33
323.05 K, 5975 kPa, x2 = 0.0251	794.14
323.05 K, 7085 kPa, x2 = 0.0251	795.08
323.05 K, 7991 kPa, x2 = 0.0251	795.85
323.05 K, 9003 kPa, x2 = 0.0251	796.68
323.05 K, 10032 kPa, x2 = 0.0251	797.56
323.05 K, 10996 kPa, x2 = 0.0251	798.32
323.05 K, 11029 kPa, x2 = 0.9698	630.03
323.05 K, 12005 kPa, x2 = 0.9698	671.01
323.05 K, 12028 kPa, x2 = 0.0251	799.15
323.05 K, 12996 kPa, x2 = 0.9698	700.08
323.05 K, 13030 kPa, x2 = 0.0251	799.93
323.05 K, 14024 kPa, x2 = 0.9698	723.36
323.05 K, 14030 kPa, x2 = 0.0251	800.72
323.05 K, 15018 kPa, x2 = 0.0251	801.45
323.05 K, 15024 kPa, x2 = 0.9698	741.89
323.05 K, 16009 kPa, x2 = 0.9698	757.4
323.05 K, 16017 kPa, x2 = 0.0251	802.24
323.05 K, 17001 kPa, x2 = 0.9698	771.14
323.05 K, 17014 kPa, x2 = 0.0251	802.97
323.05 K, 18016 kPa, x2 = 0.9698	783.62
323.05 K, 18025 kPa, x2 = 0.0251	803.71
323.05 K, 19020 kPa, x2 = 0.9698	794.82
323.05 K, 19034 kPa, x2 = 0.0251	804.49
323.05 K, 20048 kPa, x2 = 0.9698	805.21
323.05 K, 20052 kPa, x2 = 0.0251	805.21
323.05 K, 21014 kPa, x2 = 0.0251	805.95
323.05 K, 21055 kPa, x2 = 0.9698	814.54
323.05 K, 22017 kPa, x2 = 0.9698	822.92
323.05 K, 22027 kPa, x2 = 0.0251	806.68
323.05 K, 23002 kPa, x2 = 0.0251	807.38
323.05 K, 23087 kPa, x2 = 0.9698	831.58
323.05 K, 24035 kPa, x2 = 0.0251	808.13
323.05 K, 24055 kPa, x2 = 0.9698	838.92
323.05 K, 25023 kPa, x2 = 0.0251	808.84
323.07 K, 1981 kPa, x2 = 0.0857	794.04
323.07 K, 3013 kPa, x2 = 0.0857	795.05
323.07 K, 4009 kPa, x2 = 0.0857	795.99
323.07 K, 5021 kPa, x2 = 0.0857	796.91
323.07 K, 6010 kPa, x2 = 0.0857	797.83
323.07 K, 6995 kPa, x2 = 0.0857	798.74
323.07 K, 7985 kPa, x2 = 0.0857	799.59
323.07 K, 9047 kPa, x2 = 0.0857	800.55
323.07 K, 10028 kPa, x2 = 0.0857	801.4
323.07 K, 11003 kPa, x2 = 0.0857	802.22
323.07 K, 12005 kPa, x2 = 0.0857	803.07
323.07 K, 12995 kPa, x2 = 0.0857	803.91
323.07 K, 14273 kPa, x2 = 0.0857	805.01
323.07 K, 15019 kPa, x2 = 0.0857	805.58
323.07 K, 15998 kPa, x2 = 0.0857	806.41
